In patent publication US6855710B2, “Substituted indolines with an inhibitory effect on various kinases and complexes of CDKs” (Boehringer Ingelheim Pharma KG, priority 1998, dated 2005) one finds melting point data, which are given here for 23 compounds.

By melting point is commonly meant the temperature, or range, at which the solid turns liquid.

In the case of `COc1ccc(/C(Nc2ccc(CN(C)C)cc2)=C2/C(=O)Nc3ccccc32)cc1` [Example 215, (Z)-3-[1-(4-dimethylaminomethyl-phenylamino)-1-(4-methoxyphenyl)-methylidene]-2-indolinone], the melting point lay within 206 to 207 °C.

In turn, `COc1ccc(/C(Nc2ccc(CN(C)C)cc2)=C2/C(=O)Nc3ccc([N+](=O)[O-])cc32)cc1` [Example 216, (Z)-3-[1-(4-dimethylaminomethyl-phenylamino)-1-(4-methoxyphenyl)-methylidene]-5-nitro-2-indolinone] showed a melting point of 259 to 262 °C.

In turn, `COc1cccc(/C(Nc2ccc(CN(C)C)cc2)=C2/C(=O)Nc3ccccc32)c1` [Example 217, (Z)-3-[1-(4-dimethylaminomethyl-phenylamino)-1-(3-methoxyphenyl)-methylidene]-2-indolinone] gave a melting point of 193 to 194 °C.

As to `COc1cccc(/C(Nc2ccc(CN(C)C)cc2)=C2/C(=O)Nc3ccc([N+](=O)[O-])cc32)c1` [Example 218, (Z)-3-[1-(4-dimethylaminomethyl-phenylamino)-1-(3-methoxyphenyl)-methylidene]-5-nitro-2-indolinone], the melting point lay in the range of 206 to 208 °C.

Turning to `CN(C)Cc1ccc(N/C(=C2\C(=O)Nc3ccccc32)c2ccc([N+](=O)[O-])cc2)cc1` [Example 219, (Z)-3-[1-(4-dimethylaminomethyl-phenylamino)-1-(4-nitrophenyl)-methylidene]-2-indolinone], the melting point came out at 235 °C.

The compound `CN(C)Cc1ccc(N/C(=C2\C(=O)Nc3ccccc32)c2ccc(Cl)cc2)cc1` [Example 221, (Z)-3-[1-(4-dimethylaminomethyl-phenylamino)-1-(4-chlorophenyl)-methylidene]-2-indolinone] yielded a melting point of 213 °C.

Consider `CN(C)Cc1ccc(N/C(=C2\C(=O)Nc3ccc([N+](=O)[O-])cc32)c2ccc(Cl)cc2)cc1` [Example 222, (Z)-3-[1-(4-dimethylaminomethyl-phenylamino)-1-(4-chlorophenyl)-methylidene]-5-nitro-2-indolinone], for which the melting point is 311 °C.

In turn, `CN(C)Cc1ccc(N/C(=C2\C(=O)Nc3ccccc32)c2cccc(Cl)c2)cc1` [Example 223, (Z)-3-[1-(4-dimethylaminomethyl-phenylamino)-1-(3-chlorophenyl)-methylidene]-2-indolinone] displayed a melting point of 197 to 198 °C.

In turn, `CN(C)Cc1ccc(N/C(=C2\C(=O)Nc3ccc([N+](=O)[O-])cc32)c2cccc(Cl)c2)cc1` [Example 224, (Z)-3-[1-(4-dimethylaminomethyl-phenylamino)-1-(3-chlorophenyl)-methylidene]-5-nitro-2-indolinone] came in with a melting point of 274 °C.

As for `COC(=O)C(Cc1ccc(N/C(=C2\C(=O)Nc3ccc([N+](=O)[O-])cc32)c2ccccc2)cc1)NC(=O)OC(C)(C)C` (centres unmarked) [Example 225, (Z)-3-{1-[4-(2-tert.butoxycarbonylamino-2-methoxycarbonyl-ethyl)-phenylamino]-1-phenyl-methylidene}-5-nitro-2-indolinone], the melting point turned out to be 139 °C.

`CC(C)(C)OC(=O)NC(Cc1ccc(N/C(=C2\C(=O)Nc3ccc([N+](=O)[O-])cc32)c2ccccc2)cc1)C(=O)O` (centres unmarked) [Example 226, (Z)-3-{1-[4-(2-tert.butoxycarbonylamino-2-carboxy-ethyl)-phenylamino]-1-phenyl-methylidene}-5-nitro-2-indolinone]: the melting point was 235 °C (dec.).

`O=C1Nc2ccc([N+](=O)[O-])cc2/C1=C(/Nc1ccc(CN2CCSCC2)cc1)c1ccccc1` [Example 229, (Z)-3-[1-(4-thiomorpholinomethyl-phenylamino)-1-phenyl-methylidene]-5-nitro-2-indolinone] displayed a melting point of 276 to 277 °C.

Turning to `O=C1Nc2ccc([N+](=O)[O-])cc2/C1=C(/Nc1ccc(CN2CC[S+]([O-])CC2)cc1)c1ccccc1` [Example 230, (Z)-3-{1-[4-((1-oxothiomorpholino)-methyl)-phenylamino]-1-phenyl-methylidene}-5-nitro-2-indolinone], the melting point fell in the range of 289 to 290 °C.

For `O=C1Nc2ccc([N+](=O)[O-])cc2/C1=C(/Nc1ccc(CN2CCS(=O)(=O)CC2)cc1)c1ccccc1` [Example 231, (Z)-3-{1-[4-((1,1-dioxothiomorpholino)-methyl)-phenylamino]-1-phenyl-methylidene}-5-nitro-2-indolinone], the melting point is 328 to 329 °C (dec.).

Turning to `CN(Cc1ccc(N/C(=C2\C(=O)Nc3ccc([N+](=O)[O-])cc32)c2ccccc2)cc1)C1CCCCC1` [Example 232, (Z)-3-{1-[4-(N-cyclohexyl-N-methyl-aminomethyl)-phenylamino]-1-phenyl-methylidene}-5-nitro-2-indolinone], the melting point is 215 °C.

Compound `O=C1Nc2ccc([N+](=O)[O-])cc2/C1=C(/Nc1ccc(CNc2ccccc2)cc1)c1ccccc1` [Example 233, (Z)-3-{1-[4-(phenylaminomethyl)-phenylamino]-1-phenyl-methylidene}-5-nitro-2-indolinone] displayed a melting point of 274 to 277 °C.

Compound `CN(Cc1ccc(N/C(=C2\C(=O)Nc3ccc([N+](=O)[O-])cc32)c2ccccc2)cc1)c1ccccc1` [Example 234, (Z)-3-{1-[4-(N-methyl-N-phenyl-aminomethyl)-phenylamino]-1-phenyl-methylidene}-5-nitro-2-indolinone] showed a melting point of 228 to 230 °C.

In turn, `CN(Cc1ccc(N/C(=C2\C(=O)Nc3ccc([N+](=O)[O-])cc32)c2ccccc2)cc1)c1ccccn1` [Example 235, (Z)-3-{1-[4-(N-methyl-N-(2-pyridyl)-aminomethyl)-phenylamino]-1-phenyl-methylidene}-5-nitro-2-indolinone] came in with a melting point of 213 to 216 °C.

For `CC(C)(C)OC(=O)N(Cc1ccccc1)Cc1ccc(N/C(=C2\C(=O)Nc3ccc([N+](=O)[O-])cc32)c2ccccc2)cc1` [Example 236, (Z)-3-{1-[4-(N-benzyl-N-tert.butoxycarbonyl-aminomethyl)-phenylamino]-1-phenyl-methylidene}-5-nitro-2-indolinone], the melting point is 202 to 203 °C (dec.).

Compound `CN(Cc1ccccc1)Cc1ccc(N/C(=C2\C(=O)Nc3ccc([N+](=O)[O-])cc32)c2ccccc2)cc1` [Example 238, (Z)-3-{1-[4-(N-benzyl-N-methyl-aminomethyl)-phenylamino]-1-phenyl-methylidene}-5-nitro-2-indolinone] showed a melting point of 200 to 201 °C.

In turn, `O=C1Nc2ccc([N+](=O)[O-])cc2/C1=C(/Nc1ccc(CNCCO)cc1)c1ccccc1` [Example 239, (Z)-3-{1-[4-(2-hydroxy-ethylaminomethyl)-phenylamino]-1-phenyl-methylidene}-5-nitro-2-indolinone] displayed a melting point of 196 to 198 °C.

On to `NC(CCO)(CCO)c1ccc(N/C(=C2\C(=O)Nc3ccc([N+](=O)[O-])cc32)c2ccccc2)cc1` [Example 240, (Z)-3-{1-[4-(Bis-(2-hydroxyethyl)-aminomethyl)-phenylamino]-1-phenyl-methylidene}-5-nitro-2-indolinone], for which the melting point was in the range of 196 to 198 °C.

`CCOC(=O)CCNCc1ccc(N/C(=C2\C(=O)Nc3ccc([N+](=O)[O-])cc32)c2ccccc2)cc1` [Example 241, (Z)-3-{1-[4-(2-ethoxycarbonyl-ethylaminomethyl)-phenylamino]-1-phenyl-methylidene}-5-nitro-2-indolinone] yielded a melting point of 129 to 131 °C.
